Read-outs that look alike come from different tables or passages of the source.
Experiments:
[1] = Single compound bioaccessibility: LC–HRMS intensities after in vitro gastrointestinal digestion vs other extractions; assay type: in vitro ADME; conditions: whole sample set, Dig vs Org and No_Dig
Experimental: Five grams of each sample underwent in vitro gastrointestinal digestion. The simulated digestion was performed following the three-stage model (oral, gastric, and intestinal phases) proposed by the INFOGEST consortium and described by Minekus et al. [13] with the slight modifications described in [14]. Briefly, during the oral phase (2 min), samples were mixed at 37 °C in a SW-20 water bath (Julabo GmbH, Seelbach, Germany) with an electrolyte solution to simulate salivary fluid and with amylase enzyme. Samples then underwent a gastric phase (2 h) in which they were mixed with simulated gastric fluid and pepsin enzyme. Finally, during the intestinal phase (2 h), samples from the gastric phase were mixed with simulated intestinal fluid, bile salts, and pancreatin. Solutions were adjusted to pH 3 and 7 for the gastric and intestinal phases, respectively, with a MICROpH 2002 pH-meter (CRISON, Carpi, Italy), and the digestion process was stopped by bringing the pH down to 5.4. Samples were then centrifuged at 12,500× g and 0 °C for 10 min in a Heraeus megafuge 11R centrifuge (THERMO electron, Chateau-Gontier (France), and the supernatants were filtered through a 0.45 μm CA syringe filters and immediately stored at −20 °C until further analysis. The digestion process was replicated four times for each sample. Digestion blanks in which the whole sample was replaced with 5 mL of water were also prepared in order to monitor the possible contributions of the enzymes and salts employed during in vitro digestion in the subsequent analytic determinations.
Non-digestion extraction was performed to allow a comparison with the samples digested in vitro. This employed the same temperature and time conditions and the same weight and volume ratios. Samples were extracted at 37 °C for 4 h and 2 min (the whole time for the simulated gastrointestinal digestion) with just Milli-Q water and without enzymes or simulated fluids in order to avoid food matrix degradation due to those components. After this, non-digested samples were centrifuged and filtered in the same way as the digested samples.
Characterization of polyphenols and methylxanthines from all the extract types (Org, Dig, and No_Dig) of the samples was performed with an untargeted metabolomics approach by using a rapid-resolution LC system (RRLC) 1200 series (Agilent Technologies, Waldbronn, Germany), including a binary pump, thermostatized autosampler, column oven, and a DAD detector. The RRLC system was coupled to a 6520 series electrospray ionization (ESI) source with a quadrupole time-of-flight (QTOF) mass spectrometer (Agilent Technologies). Compound separation was performed using an InfinityLab Poroshell 120EC-C18 column (2.1 × 100 mm, particle size of 2.7 μm) with a guard column (2.1 × 5 mm) (Agilent Technologies). […]

Caco-2 cells = conditions: cited from earlier work; for Papp values: in purified extracts, ref Kosińska et al.
in vitro = conditions: human, Caco-2

Row | SMILES | concentration (log10-intensity) after gastrointestinal digestion in comparison with the other extraction types [1] | T2 values relative to T1 values (absorption percentage) (Caco-2 cell monolayers) | apparent permeability coefficients (Caco-2 cell monolayers) | apparent permeability (Caco-2 cells) [×10⁻⁶ cm/s] | Papp values (Caco-2 cells) [×10⁻⁶ cm/s] | T2 values relative to T1 values (absorption percentage) (Caco-2 cell monolayers; human) | Papp (in vitro) [×10⁻⁶ cm/s] | detection on the basolateral side (Caco-2 cell monolayers)
1 | O.Oc1cc(O)c2c(c1)O[C@H](c1ccc(O)c(O)c1)[C@@H](O)C2 [catechin] | decreased | 1.63-1.78 fold | 3.28-30.47 × 10^−6 cm/s | 0.8 | 4.19 | – | – | –
2 | Oc1cc(O)c2c(c1)O[C@H](c1ccc(O)c(O)c1)[C@H](O)C2 [epicatechin] | decreased | – | – | – | 3.38 | 1.56-1.86 fold | 3.28 to 30.5 | –
3 | Oc1cc(O)c2c(c1)O[C@H](c1ccc(O)c(O)c1)[C@H](O)[C@H]2c1c(O)cc(O)c2c1O[C@H](c1ccc(O)c(O)c1)[C@@H](O)C2 [PCB1, procyanidin B1] | higher | – | – | – | – | – | – | not detected
4 | Cn1c(=O)c2c(ncn2C)n(C)c1=O [caffeine, reference compound] | slightly decreased | – | – | – | – | – | – | –
